For four compounds, IC50 results are on record in patent US5834481A, “Heterotricyclically substituted phenyl-cyclohexane-carboxylic acid derivatives” (Bayer Aktiengesellschaft, priority 1993, dated 1998).

This test deals with smooth muscle cells obtained from the aortas of rats. Description: Inhibition of the proliferation of smooth muscle cells (3H-thymidine incorporation). Format: cell-based. The following applies: semi-maximum inhibition of the thymidine incorporation produced by 10% FCS; rat aortic smooth muscle cells. The protocol: Investigation of the inhibition of the proliferation of smooth muscle cells by the compounds according to the invention
To determine the antiproliferative action of the compounds, smooth muscle cells are used which are obtained from the aortas of rats by the media explant technique [R. Ross, J. Cell, Biol. 50, 172, 1971]. The cells are inoculated into suitable culture dishes, as a rule 96-hole plates, and cultured at 37° C. in 5% CO2 for 2-3 days in medium 199 containing, 7.5% FCS and 7.5% NCS, 2mM L-glutamine and 15 mM HEPES, pH 7.4. The cells are then synchronized for 2-3 days by withdrawal of serum and then stimulated into growth using […] or other factors. Test compounds are simultaneously added. After 16-20 hours, 1 μCi ^3 H-thymidine is added and after a further 4 hours the incorporation of this substance into the TCA-precipitable DNA of the cells is determined. To determine the IC50 values, the active compound concentration is calculated which, on sequential dilution of the active compound, causes semi-maximum inhibition of the thymidine incorporation produced by 10% FCS.
Background: Uptake of a labelled nucleoside into DNA is a usual measure of proliferation.
What is called IC50 is the point on the concentration scale where inhibition reaches its midpoint. Compound `Cc1cc(C)c2c3c(n(Cc4ccc(C5CCCCC5C(=O)N[C@H](CO)c5ccccc5)cc4)c2n1)CCCC3` (single isomer, unassigned) [Example 27] came in with an IC50 of 580 nM.

In turn, `O=C(N[C@H](CO)c1ccccc1)C1CCCCC1c1ccc(Cn2c3ccccc3c3ccncc32)cc1` (single isomer, unassigned) [Example 30] had an IC50 of 0.1 nM.

`O=C(N[C@H](CO)c1ccccc1)C1CCCCC1c1ccc(Cn2c3ccccc3c3cccnc32)cc1` (single isomer, unassigned) [Example 32] yielded an IC50 of 2 nM.

Regarding `O=C(N[C@H](CO)c1ccccc1)C1CCCCC1c1ccc(Cn2c3c(c4cccnc42)CCCCC3)cc1` (single isomer, unassigned) [Example 50], the 50% inhibitory concentration (IC50) is 0.9 nM.
